PubChem BioAssay (NCI)
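Method: 48-hour compound exposure of cells in 96-well plates, five concentrations, linear interpolation of endpoints. GI50 = concentration required for 50% inhibition of growth. The concentration for full growth arrest is given as TGI.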

How the values were obtained:
Test in all cases: NCI-60 cell line screen, 48 h
COLO 205 colon = system: COLO 205 colon
IGROV1 ovarian = system: IGROV1 ovarian
LOX IMVI melanoma = system: LOX IMVI melanoma
NCI-H460 lung = system: NCI-H460 lung
NCI-H522 lung = system: NCI-H522 lung
U251 CNS = system: U251 CNS
UO-31 renal = system: UO-31 renal
SNB-75 CNS = system: SNB-75 CNS
CCRF-CEM leukemia = system: CCRF-CEM leukemia
OVCAR-4 ovarian = system: OVCAR-4 ovarian

Work on `CCc1ccc2nc(-c3ccc(O)cc3)sc2c1` yielded a TGI (COLO 205 colon) of 28.6 µM, a TGI (IGROV1 ovarian) of 29.4 µM and a TGI (LOX IMVI melanoma) of 33.6 µM. The TGI (NCI-H460 lung) was 41.3 µM, the TGI (NCI-H522 lung) was 18.3 µM and the TGI (U251 CNS) was 33.6 µM. It also gave a TGI (UO-31 renal) of 24.4 µM.

Compound `CN(C)c1ccc(C(Cc2ccc3ccccc3n2)Cc2ccc3ccccc3n2)cc1` has a GI50 (IGROV1 ovarian) of 2.57 µM, a TGI (IGROV1 ovarian) greater than 100 µM and a GI50 (NCI-H460 lung) of 3.14 µM. For the same compound, the TGI (NCI-H460 lung) was greater than 100 µM, the GI50 (NCI-H522 lung) was 3.4 µM and the TGI (NCI-H522 lung) was greater than 100 µM. It also gave a GI50 (SNB-75 CNS) of 3.24 µM, a TGI (SNB-75 CNS) greater than 100 µM and a GI50 (UO-31 renal) of 1.96 µM. It also gave a TGI (UO-31 renal) greater than 100 µM.

For `N#Cc1c(N)sc2c1-c1ccccc1OC2`, the TGI (CCRF-CEM leukemia) was 36 µM, the TGI (COLO 205 colon) was greater than 100 µM and the TGI (IGROV1 ovarian) was greater than 100 µM. The TGI (LOX IMVI melanoma) was greater than 100 µM, the TGI (NCI-H460 lung) was greater than 100 µM and the TGI (OVCAR-4 ovarian) was 88 µM. For the same compound, the TGI (U251 CNS) was greater than 100 µM and the TGI (UO-31 renal) was 70 µM.

`CCOC(=O)C(O)(NC(=O)c1ccccc1F)C(F)(F)F` (centres undefined) was tested, and the TGI (CCRF-CEM leukemia) was greater than 100 µM, the TGI (COLO 205 colon) was greater than 100 µM and the TGI (IGROV1 ovarian) was greater than 100 µM. For the same compound, the TGI (LOX IMVI melanoma) was greater than 100 µM, the TGI (NCI-H522 lung) was greater than 100 µM and the TGI (OVCAR-4 ovarian) was greater than 100 µM. The TGI (SNB-75 CNS) was greater than 100 µM, the TGI (U251 CNS) was greater than 100 µM and the TGI (UO-31 renal) was greater than 100 µM.

`CCCCCCCCCCCCCC[n+]1ccc2c(C)c3c(c(C)c2c1)c1cc(O)ccc1n3CC` was tested, and the GI50 (IGROV1 ovarian) was 0.496 µM, the TGI (IGROV1 ovarian) was 2.06 µM and the GI50 (NCI-H460 lung) was 0.347 µM. It also gave a TGI (NCI-H460 lung) of 1.59 µM, a GI50 (NCI-H522 lung) of 0.42 µM and a TGI (NCI-H522 lung) of 2 µM. It also gave a GI50 (OVCAR-4 ovarian) of 0.272 µM, a TGI (OVCAR-4 ovarian) of 1.07 µM and a GI50 (SNB-75 CNS) of 0.213 µM. The TGI (SNB-75 CNS) was 1.05 µM, the GI50 (UO-31 renal) was 1.39 µM and the TGI (UO-31 renal) was 4.57 µM.

Work on `COc1cc(/C=C/C(=O)c2c(C)nc3ccccc3c2C)ccc1OCCCOc1cc2c(cc1OC)C(=O)N1CCC[C@H]1C=N2` yielded a TGI (CCRF-CEM leukemia) of 0.0215 µM, a GI50 (COLO 205 colon) of 0.0211 µM and a TGI (COLO 205 colon) of 0.0453 µM. The GI50 (LOX IMVI melanoma) was 0.0193 µM, the TGI (LOX IMVI melanoma) was 0.0602 µM and the GI50 (NCI-H460 lung) was 0.0292 µM. For the same compound, the GI50 (NCI-H522 lung) was 0.0337 µM, the TGI (NCI-H522 lung) was 22.9 µM and the GI50 (OVCAR-4 ovarian) was 0.0443 µM. It also gave a TGI (OVCAR-4 ovarian) of 31.5 µM, a GI50 (SNB-75 CNS) of 0.0226 µM and a TGI (SNB-75 CNS) of 0.114 µM. The GI50 (UO-31 renal) was 0.0583 µM and the TGI (UO-31 renal) was 0.817 µM.

`CO/N=C(\C)COc1ccc2c(=O)c(-c3ccccc3)coc2c1` showed a GI50 (CCRF-CEM leukemia) greater than 100 µM, a TGI (CCRF-CEM leukemia) greater than 100 µM and a GI50 (COLO 205 colon) of 11.2 µM. For the same compound, the TGI (COLO 205 colon) was 32.4 µM, the GI50 (IGROV1 ovarian) was 24.7 µM and the TGI (IGROV1 ovarian) was 77.9 µM. For the same compound, the GI50 (LOX IMVI melanoma) was 42.5 µM, the TGI (LOX IMVI melanoma) was greater than 100 µM and the GI50 (NCI-H460 lung) was 30.4 µM. The TGI (NCI-H460 lung) was greater than 100 µM, the GI50 (NCI-H522 lung) was 22.2 µM and the TGI (NCI-H522 lung) was 79 µM. The GI50 (OVCAR-4 ovarian) was 40.4 µM, the TGI (OVCAR-4 ovarian) was greater than 100 µM and the GI50 (SNB-75 CNS) was 20 µM. The TGI (SNB-75 CNS) was 81.6 µM, the GI50 (U251 CNS) was 32.2 µM and the TGI (U251 CNS) was greater than 100 µM. The GI50 (UO-31 renal) was 22.2 µM and the TGI (UO-31 renal) was 46.3 µM.

In the case of `COc1cc(C2C(C(=O)O)=C(COC(C)=O)Oc3cc4c(cc32)OCO4)cc(OC)c1OC` (centres undefined), the TGI (CCRF-CEM leukemia) is reported as greater than 100 µM, the TGI (COLO 205 colon) is reported as greater than 100 µM and the TGI (IGROV1 ovarian) is reported as greater than 100 µM. It also gave a TGI (LOX IMVI melanoma) greater than 100 µM, a TGI (NCI-H460 lung) greater than 100 µM and a TGI (OVCAR-4 ovarian) greater than 100 µM. The TGI (SNB-75 CNS) was greater than 100 µM, the TGI (U251 CNS) was greater than 100 µM and the TGI (UO-31 renal) was greater than 100 µM.

`CNC(=O)N(C)COC` showed a TGI (CCRF-CEM leukemia) greater than 100 µM, a TGI (COLO 205 colon) greater than 100 µM and a TGI (IGROV1 ovarian) greater than 100 µM. The TGI (LOX IMVI melanoma) was greater than 100 µM, the TGI (NCI-H460 lung) was greater than 100 µM and the TGI (NCI-H522 lung) was greater than 100 µM. The TGI (OVCAR-4 ovarian) was greater than 100 µM, the TGI (SNB-75 CNS) was greater than 100 µM and the TGI (U251 CNS) was greater than 100 µM. It also gave a TGI (UO-31 renal) greater than 100 µM.

`O=C(O)c1cn2c3c(cc(N4CCN(CCO)CC4)cc3c1=O)SCC2` gave a TGI (CCRF-CEM leukemia) greater than 100 µM, a TGI (COLO 205 colon) greater than 100 µM and a TGI (IGROV1 ovarian) greater than 100 µM. For the same compound, the TGI (LOX IMVI melanoma) was greater than 100 µM, the TGI (NCI-H460 lung) was greater than 100 µM and the TGI (NCI-H522 lung) was 94.2 µM. It also gave a TGI (OVCAR-4 ovarian) greater than 100 µM, a TGI (SNB-75 CNS) greater than 66.5 µM and a TGI (U251 CNS) greater than 100 µM. It also gave a TGI (UO-31 renal) greater than 100 µM.
